Source: patent US4576959A, “6-Substituted-4-dialkylaminotetrahydrobenz[c,d]indoles” (priority 1985, dated 1986)
pIC50: −log10 of the molar value.

Legend:
[1] = target: T1, ^3 H-spiperone (^3 H-SPIP) receptor binding, cerebral cortex (Rattus norvegicus, UniProt P14842); experiment: Inhibition of ^3 H-spiperone (^3 H-SPIP) specific binding in rat cerebral cortex membranes; set-up: species or system male Wistar rats; settings: ^3 H-spiperone 0.6-0.7 nM, 15 minutes at 37°, pH=7.4, values in nanomoles of inhibitor, read-out: ^3 H-Ligand-IC50, ^3 H-SPIP
T1 construct: The cerebral cortex was dissected out and then homogenized and centrifuged; from tissue; host or cells: cerebral cortex membranes of male Wistar rats
Description: Brain tissue was obtained from 150-200 g. male Wistar rats. The cerebral cortex was dissected out and then homogenized and centrifuged according to the method described by Nelson and coworkers, Mol. Pharmacol., 14, 983-995 (1978), using preincubation in buffer without added monoamine oxidase inhibitor in order to eliminate endogenous serotonin. For receptor binding, each sample contained 300-400 μg. of membrane protein and 10 μM pargyline in addition to the ^3 H-ligand in 1 ml. of 0.05M tris buffer, pH=7.4. The assay of serotinin binding was done following the method of Bennett and Snyder, Mol. Pharmacol., 12, 373-389 (1976), and that for tritiated spiperone according to Peroutka and Snyder, Mol. Pharmacol., 16, 687-699 (1979). The samples were incubated for 15 minutes at 37° and were then filtered through GF/C glass fiber filter pads using a Brandel M-24 cell harvester modified for receptor binding. After two 5 ml. rinses, the filter discs were put into scintillation vials and counted in 10 ml. of Amersham PCS scintillation fluid. Nonspecific binding of ^3 H-serotonin (^3 H-5HT) was determined in the presence of 10^-5 M serotonin and of ^3 H-spiperone in the presence of 10^-6 M LSD. Specific binding was calculated as the difference between total binding with no added nonradioactive compound and the nonspecific binding.

[2] = tested on: central serotonin (5HIAA in hypothalamus); experiment: Decrease of serotonin metabolite 5HIAA in hypothalamus as a measure of central serotonin agonist activity; type: in vivo, Wistar rats; settings: 0.3 mg./kg. s.c., 1 hour before rats were killed; control 2.59 ± .11; * = statistically significant
Description: (§1) Secondly, as a measure of central serotonin agonist activity, the decrease of serotonin metabolites in brain was measured. Also the measure of dopamine agonist activity was indicated by changes in dopamine metabolites.
(§2) The following protocol was employed. 150-200 g. Wistar rats were given 0.3 mg./kg. subcutaneously of (±)-4-di-n-propylamino-6-substituted-1,3,4,5-tetrahydrobenz[c,d]indole.Then, 60 minutes later each rat was decapitated and the hypothalamus and striatum were dissected out and extracted. The amounts of homovanillic acid (HVA) and 3,4-dihydroxyphenylacetic acid (DOPAC) in the striatum and of 5-hydroxyindoleacetic acid (5HIAA) in the hypothalamus were measured by high-performance liquid chromatography, using electrochemical detection. Serum corticosteroids were also measured. In the table, columns 1 and 2 give the substitution pattern in the compounds of formula IV, columns 3-5, the 5HT or dopamine metabolite concentrations, and column 6, the serum corticosteroids.

[3] = target: ^3 H-serotonin (^3 H-5HT) receptor binding, cerebral cortex; experiment: Inhibition of ^3 H-serotonin (^3 H-5HT) specific binding in rat cerebral cortex membranes; set-up: species or system male Wistar rats; settings: ^3 H-serotonin 2-3 nM, 15 minutes at 37°, pH=7.4, values in nanomoles of inhibitor, read-out: ^3 H-Ligand-IC50, ^3 H-5HT
[4] = Serum corticosteroids (corticosterone); type: in vivo, Wistar rats; settings: 0.3 mg./kg. s.c., 1 hour before rats were killed; control 7 ± 1; * = statistically significant
Description: as §2

[5] = tested on: dopamine (metabolites in striatum); experiment: Changes in dopamine metabolites (DOPAC, HVA) in striatum as a measure of dopamine agonist activity; type: in vivo, Wistar rats; settings: 0.3 mg./kg. s.c., 1 hour before rats were killed, * = statistically significant; for Dopamine Metabolites In Striatum, HVA: control 4.24 ± .27; for Dopamine Metabolites In Striatum, DOPAC: control 5.58 ± .38
Description: as §1, §2

[6] = tested on: dopamine uptake in bovine striatal membrane; settings: cited from earlier work

T1 sequence (P14842 whole entry): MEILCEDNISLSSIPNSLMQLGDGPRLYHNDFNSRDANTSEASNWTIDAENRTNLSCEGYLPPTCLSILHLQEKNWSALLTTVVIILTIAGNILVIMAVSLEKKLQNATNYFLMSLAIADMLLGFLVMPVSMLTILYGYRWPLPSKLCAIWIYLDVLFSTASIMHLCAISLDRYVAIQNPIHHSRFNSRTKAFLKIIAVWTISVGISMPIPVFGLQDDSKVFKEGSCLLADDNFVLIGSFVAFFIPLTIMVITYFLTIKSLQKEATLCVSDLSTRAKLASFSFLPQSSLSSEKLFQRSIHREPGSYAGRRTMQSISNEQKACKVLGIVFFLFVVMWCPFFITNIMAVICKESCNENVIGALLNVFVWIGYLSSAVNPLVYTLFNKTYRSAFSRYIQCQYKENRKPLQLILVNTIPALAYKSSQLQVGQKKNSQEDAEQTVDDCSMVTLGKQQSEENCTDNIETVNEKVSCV

For `CCCN(CCC)C1Cc2c[nH]c3ccc([N+](=O)[O-])c(c23)C1` (racemic) [(±)-4-Di-n-propylamino-6-nitro-1,3,4,5-tetrahydrobenz[c,d]indole], the pIC50 [1] was 6.40, the “5HIAA In Hypothalamus” value [2] was 2.29 ± .03 NMoles/G and the pIC50 [3] was 7.00. The “Serum Corticosterone” value [4] was 49 ± 2 MCG/100 ML, the “Dopamine Metabolites In Striatum, HVA” value [5] was 2.02 ± .20 NMoles/G and the “Dopamine Metabolites In Striatum, DOPAC” value [5] was 3.74 ± .11 NMoles/G.
For `CCCN(CCC)C1Cc2cccc3[nH]cc(c23)C1` (racemic) [(±)-4-(di-n-propyl)amino-1,3,4,5-tetrahydrobenz[c,d]indole], the “dopamine agonist action (inhibiting dopamine uptake in bovine striatal membrane in vitro)” value [6] is listed as “selective dopamine agonist”.
For `CCCN(CCC)C1Cc2c[nH]c3ccc(C#N)c(c23)C1` (racemic) [(±)-4-Di-n-propylamino-6-cyano-1,3,4,5-tetrahydrobenz[c,d]indole], the pIC50 [1] was 6.41, the “5HIAA In Hypothalamus” value [2] was 2.34 ± .07 NMoles/G and the pIC50 [3] was 7.05. For the same molecule, the “Serum Corticosterone” value [4] was 47 ± 4 MCG/100 ML, the “Dopamine Metabolites In Striatum, HVA” value [5] was 2.27 ± .16 NMoles/G and the “Dopamine Metabolites In Striatum, DOPAC” value [5] was 4.25 ± .25 NMoles/G.
For `CCCN(CCC)C1Cc2c[nH]c3ccc(C(N)=O)c(c23)C1` (racemic) [(±)-4-Di-n-propylamino-6-carbamoyl-1,3,4,5-tetrahydrobenz[c,d]indole], the pIC50 [1] was 5.30, the “5HIAA In Hypothalamus” value [2] was 1.58 ± .03 NMoles/G and the pIC50 [3] was 7.22. For the same molecule, the “Serum Corticosterone” value [4] was 49 ± 2 MCG/100 ML, the “Dopamine Metabolites In Striatum, HVA” value [5] was 4.12 ± .27 NMoles/G and the “Dopamine Metabolites In Striatum, DOPAC” value [5] was 6.23 ± .56 NMoles/G.
